Changes are numbered by the printed parent chain.
Experiments:
CPT II variant Y479F [1] = biological target: T1, CPT II variant Y479F (Homo sapiens, UniProt P23786, Y479F); test: Lipid binding assay (membrane lipid strips); conditions: 0.4 mg enzyme, 100 pmol lipid spots
T1 construct: made in house; host or cells: Escherichia coli BL21Gold DE
T1 sequence (P23786 26-658 Y479F): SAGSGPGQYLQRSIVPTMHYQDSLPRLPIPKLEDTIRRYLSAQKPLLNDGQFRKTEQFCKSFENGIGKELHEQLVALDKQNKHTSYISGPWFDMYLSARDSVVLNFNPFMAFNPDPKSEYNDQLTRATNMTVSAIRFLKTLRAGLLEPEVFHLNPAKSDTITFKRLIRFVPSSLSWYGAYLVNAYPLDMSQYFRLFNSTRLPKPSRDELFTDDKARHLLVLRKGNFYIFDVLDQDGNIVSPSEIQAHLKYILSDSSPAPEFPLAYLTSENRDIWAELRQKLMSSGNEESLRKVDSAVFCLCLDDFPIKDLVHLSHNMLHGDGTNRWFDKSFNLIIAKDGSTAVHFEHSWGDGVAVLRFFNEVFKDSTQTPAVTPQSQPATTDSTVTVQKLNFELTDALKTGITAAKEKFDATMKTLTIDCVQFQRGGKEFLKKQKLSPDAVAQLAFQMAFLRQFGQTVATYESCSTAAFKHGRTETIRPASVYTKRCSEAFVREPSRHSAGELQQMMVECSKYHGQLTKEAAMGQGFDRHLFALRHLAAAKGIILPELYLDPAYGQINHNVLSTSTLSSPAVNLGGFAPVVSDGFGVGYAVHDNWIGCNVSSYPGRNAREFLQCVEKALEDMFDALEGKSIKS
Description: (§1) Direct interaction of CPT II WT and variants with phospholipids of the mitochondrial membrane was assessed using membrane lipid strips (Echelon Biosciences, Salt Lake City, Utah, USA). The membrane was spotted with 100 pmol of various cell membrane lipids. The assay was performed following manufacturer’s instructions with some modifications explained in the following. At first, the membrane was washed twice in phosphate buffered saline (PBS). After 1 h incubation with blocking solution (3% BSA fatty acid-free in PBS) at room temperature, the membrane was incubated with purified CPT II WT or variant (final amount 0.4 mg protein) for 2 h at 4 °C. After three washing steps, a-His-Probe (H3) mouse monoclonal antibody (Santa Cruz Biotech, Santa Cruz, CA, USA, 1:1000 dilution in PBS containing 3% BSA) was added to the membrane over night at 4 °C. The membrane was washed three times with PBS and incubated with mouse IgG horseradish peroxidase-linked whole antibody (from sheep, Amersham, Little Chalfont, Buckinghamshire, UK) for 1 h at 4 °C. The interaction was visualized by ECL Western blotting detection reagents (Amersham, Little Chalfont, Buckinghamshire, UK).

CPT II variant P50H [2] = biological target: T2, CPT II variant P50H (Homo sapiens, UniProt P23786, P50H); test: Lipid binding assay (membrane lipid strips); conditions: 0.4 mg enzyme, 100 pmol lipid spots
T2 construct: made in house; host or cells: Escherichia coli BL21Gold DE
T2 sequence (P23786 26-658 P50H): T1 sequence (P23786 26-658 Y479F) with P25H, F454Y
Description: as §1

CPT II variant S113L [3] = biological target: T3, CPT II variant S113L (Homo sapiens, UniProt P23786, S113L); test: Lipid binding assay (membrane lipid strips); conditions: 0.4 mg enzyme, 100 pmol lipid spots
T3 construct: made in house; host or cells: Escherichia coli BL21Gold DE
T3 sequence (P23786 26-658 S113L): T1 sequence (P23786 26-658 Y479F) with S88L, F454Y
Description: as §1

CPT II WT [4] = biological target: T4, CPT II WT (Homo sapiens, UniProt P23786); test: Lipid binding assay (membrane lipid strips); conditions: 0.4 mg enzyme, 100 pmol lipid spots
T4 construct: made in house; host or cells: Escherichia coli BL21Gold DE
T4 sequence (P23786 26-658): T1 sequence (P23786 26-658 Y479F) with F454Y
Description: as §1

CPT II variant Y479F [5] = biological target: T1, CPT II variant Y479F; test: nanoDSF protein stability in presence of CL or β-OG; format: binding
Description: (§2) NanoDSF is a standard method for the investigation of the folding/unfolding of proteins and the interaction of proteins with effectors/ligands/substrates
(§3) The protein stability was investigated applying nano differential scanning fluorimetry (nanoDSF) using a protein concentration of 1 mg/mL in assay buffer. […] The heating rate has been set to 1 °C per min. A heating ramp from 15 to 95 °C was determined. The nanoDSF data were obtained using a Prometheus NT.48 device. First derivatives were calculated using PR.ThermControl software (NanoTemper Technologies GmbH, Munich, Germany). Experiments were performed at least three times independently as double determination.

CPT II variant P50H [6] = biological target: T2, CPT II variant P50H; test: as above; format: binding; conditions: 1 mg/mL protein
Description: as §2, §3

CPT II variant S113L [7] = biological target: T3, CPT II variant S113L; test: as above; format: binding
Description: as §2, §3

CPT II WT [8] = biological target: T4, CPT II WT; test: as above; format: binding
Description: as §2, §3

[9] = reference TM of WT in buffer (ΔTM = 0 °C)

| Compound | Signal for interaction on membrane lipid strips (CPT II variant Y479F [1]) | Signal for interaction on membrane lipid strips (CPT II variant P50H [2]) | Signal for interaction on membrane lipid strips (CPT II variant S113L [3]) | Signal for interaction on membrane lipid strips (CPT II WT [4]) | also measured |
| --- | --- | --- | --- | --- | --- |
| phosphatidylinositol [PI] | interaction with PI was detected | No signal | interaction with PI was detected | interaction with PI was detected |  |
| phosphatidylinositol (4,5)-bisphosphate [PtdIns(4,5)P2] | highest signal | highest signal | highest signal | highest signal |  |
| CCCCCCCCO[C@@H]1O[C@H](CO)[C@@H](O)[C@H](O)[C@H]1O [β-OG, n-octyl-β-d-glucopyranoside] |  |  |  |  | TM in Buffer with 1 % β-OG (CPT II variant Y479F [5]; 1 mg/mL protein): 49.0 ± 0.5 °C; ∆TM in Buffer with 1 % β-OG (CPT II variant Y479F [5]; [9]): 12.1 ± 0.5 °C; TM in Buffer with 1 % β-OG (CPT II variant P50H [6]): 43.5 ± 0.4 °C; TM in Buffer with 1 % β-OG (CPT II variant S113L [7]; 1 mg/mL protein): 45.3 ± 0.6 °C; ∆TM in Buffer with 1 % β-OG (CPT II variant S113L [7]; [9]): 8.4 ± 0.6 °C; TM in Buffer with 1 % β-OG (CPT II WT [8]; 1 mg/mL protein): 49.9 ± 0.7 °C; ∆TM in Buffer with 1 % β-OG (CPT II WT [8]; [9]): 13.0 ± 0.7 °C |
| phosphatidylglycerol [PG] |  | lower detection signal | lower detection signal |  |  |

Further lines, with some results ahead:

| Signal for interaction on membrane lipid strips (CPT II variant Y479F [1]) | Signal for interaction on membrane lipid strips (CPT II variant P50H [2]) | Signal for interaction on membrane lipid strips (CPT II variant S113L [3]) | Signal for interaction on membrane lipid strips (CPT II WT [4]) | Compound | also measured |
| --- | --- | --- | --- | --- | --- |
| highest signal | highest signal | highest signal | highest signal | phosphatidylinositol (3,4,5)-trisphosphate [PtdIns(3,4,5)P3] |  |
|  | reduced |  |  | phosphatidylserine [PS] |  |

— PMC8125234, “Cardiolipin Stabilizes and Increases Catalytic Efficiency of Carnitine Palmitoyltransferase II and Its Variants S113L, P50H, and Y479F” (International Journal of Molecular Sciences, 2021)
